Source: US7989585B2, “Chronic treatment regimen using glucagon-like insulinotropic peptides” (Eli Lilly and Company, priority 2000, dated 2011)
No end group written: not given here.

Assays:
human GLP-1 receptor = biological target: T1, human GLP-1 receptor (Homo sapiens, UniProt P43220); assay: In vitro potency assay (CRE-BLAM fluorescence assay); format: cell-based; details: for In vitro activity relative to Val^8-GLP-1(7-37)OH: from EC50, HEK-293 Aurora CRE-BLAM cells, Val^8-GLP-1(7-37)OH control = 1; for potency higher than Val^8-GLP-1(7-37)OH: in vitro potency, approximate
T1 construct: expressed in transfected cells; host or cells: HEK-293 Aurora CRE-BLAM cells
Text: The assay is discussed in more detail on page 17 and in example 3.
These HEK-293 cells have stably integrated a DNA vector having a cAMP response element (CRE) driving expression of the β-lactamase (BLAM) gene. […] The assay is further described in Zlokarnik, et al. (1998) Science 279:84-88 (See also Example 3).
The day after seeding, the medium is replaced with plasma free medium.

[1] = cited from earlier work

T1 sequence (P43220 24-463): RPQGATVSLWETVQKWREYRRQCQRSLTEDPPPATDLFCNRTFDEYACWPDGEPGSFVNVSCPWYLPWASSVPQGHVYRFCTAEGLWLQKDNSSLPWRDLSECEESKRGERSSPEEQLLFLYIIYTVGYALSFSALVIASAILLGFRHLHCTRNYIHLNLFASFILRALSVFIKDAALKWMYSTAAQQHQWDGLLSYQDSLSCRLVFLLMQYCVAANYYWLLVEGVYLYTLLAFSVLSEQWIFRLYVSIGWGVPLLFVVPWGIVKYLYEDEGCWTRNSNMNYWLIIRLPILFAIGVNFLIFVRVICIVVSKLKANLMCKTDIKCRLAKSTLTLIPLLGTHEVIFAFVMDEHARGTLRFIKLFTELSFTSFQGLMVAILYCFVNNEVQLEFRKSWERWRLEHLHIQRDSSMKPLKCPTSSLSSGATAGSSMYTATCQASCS

Substance | In vitro activity relative to Val^8-GLP-1(7-37)OH (human GLP-1 receptor) | also measured
Arg^34Lys^26-(N-ε-(γ-Glu(N-α-hexadecanoyl)))-GLP-1(7-37) [reference compound] | 1.92 | 
Exendin-4 [reference compound] | 4.5 | potency higher than Val^8-GLP-1(7-37)OH (human GLP-1 receptor): approximately 5 fold
GLP-1(7-37)OH |  | intact GLP-1 levels ([1]; 2.4 pmol/kg/min (Toft-Nielsen et al.)): ~22.5 picomolar; plasma levels of intact GLP-1 ([1]; continuous administration 0.75 pmol/kg/min for 180 min, last 120 min of treatment (Naslund et al.)): approximately 20 picomolar
Gly^8-GLP-1(7-37)OH (HGEGTFTSDVSSYLEGQAAKEFIAWLVKGRG-OH; UniProt P01275 98-128, looked up, variant A8G) [GLP-1 analog] | 1.67 | 
Val^8-Arg^26-GLP-1(7-37)OH | 1.47 | 
Val^8-GLP-1(7-36)NH2 | 1.06 | 
Val^8-Glu^22-GLP-1(7-37)OH | 3.33 | potency higher than Val^8-GLP-1(7-37)OH (human GLP-1 receptor): approximately 3 fold
Val^8-Leu^16-GLP-1(7-37)OH | 1.13 | 
Val^8-Lys^22-GLP-1(7-37)OH | 1.22 | 
Val^8-Trp^12-GLP-1(7-37)OH | 1.07 | 
Val^8-Tyr^12-GLP-1(7-37)OH | 1.73 | 
